pIC50: −log10 of the molar value.
The compounds below were run against Cyclin-dependent kinase 2/cyclin E1 (Homo sapiens, UniProt P24941) (assay: Inhibition of human GST-tagged CDK2/FLAG-Cyclin E1 (unknown origin) expressed in baculovirus expression system incubated for 60 mins by HTRF enzyme activity assay).

pIC50, ≥ 7.30:
CNS(=O)(=O)c1ccc(Nc2ncc3c(n2)N([C@@H]2CCC[C@H]2C)C(=O)C32CC2)cc1, CC[C@@H](N1C(=O)C2(CC2)c2cnc(Nc3ccc(S(=O)(=O)NC)cc3)nc21)C(F)(F)F, CC1(NS(=O)(=O)c2ccc(Nc3ncc4c(n3)N([C@@H]3CCC[C@]3(C)O)C(=O)C43CC3)cc2)CNC1, CC1CCCC1N1C(=O)C2(CC2)c2cnc(Nc3ccc(S(=O)(=O)N[C@@H]4CCCN(C)C4)cc3)nc21 (stereo partly specified), CN(C)CCNS(=O)(=O)c1ccc(Nc2ncc3c(n2)N(c2cc(F)ccc2Cl)C(=O)C32CC2)cc1, CNS(=O)(=O)c1ccc(Nc2ncc3c(n2)N(c2cc4c(cc2Cl)CNCC4)C(=O)C32CC2)cc1
